The supplement of paper PMC13380429

Tests used:
Settings in all cases: 72 h
U2OS [1] = assay: cell viability relative to DMSO; higher = less toxic
Caco-2 [2] = assay: as above
Vero E6 [3] = assay: as above
HepG2 [4] = assay: as above
Calu-3 [5] = assay: as above
U2OS [6] = assay: drug sensitivity score (DSS) for viability; higher = more toxic; extreme values may be limits of the assay
Caco-2 [7] = assay: as above
Vero E6 [8] = assay: as above
HepG2 [9] = assay: as above
Calu-3 [10] = assay: as above
U2OS [11] = assay: relative viability EC50 (midpoint between 100% and the lowest measured viability); higher = less toxic
Caco-2 [12] = assay: as above
Vero E6 [13] = assay: as above
HepG2 [14] = assay: as above
Calu-3 [15] = assay: as above

| Compound | cell viability (U2OS [1]; 1 nM) | cell viability (U2OS [1]; 10 nM) | cell viability (U2OS [1]; 100 nM) | cell viability (U2OS [1]; 1000 nM) | cell viability (U2OS [1]; 10000 nM) | cell viability (Caco-2 [2]; 1 nM) | cell viability (Caco-2 [2]; 10 nM) | cell viability (Caco-2 [2]; 100 nM) | cell viability (Caco-2 [2]; 1000 nM) | cell viability (Caco-2 [2]; 10000 nM) | cell viability (Vero E6 [3]; 1 nM) | cell viability (Vero E6 [3]; 10 nM) | cell viability (Vero E6 [3]; 100 nM) | cell viability (Vero E6 [3]; 1000 nM) | cell viability (Vero E6 [3]; 10000 nM) | cell viability (HepG2 [4]; 1 nM) | cell viability (HepG2 [4]; 10 nM) | cell viability (HepG2 [4]; 100 nM) | cell viability (HepG2 [4]; 1000 nM) | cell viability (HepG2 [4]; 10000 nM) | cell viability (Calu-3 [5]; 1 nM) | cell viability (Calu-3 [5]; 10 nM) | cell viability (Calu-3 [5]; 100 nM) | cell viability (Calu-3 [5]; 1000 nM) | cell viability (Calu-3 [5]; 10000 nM) | drug sensitivity score (U2OS [6]) | drug sensitivity score (Caco-2 [7]) | drug sensitivity score (Vero E6 [8]) | drug sensitivity score (HepG2 [9]) | drug sensitivity score (Calu-3 [10]) | relative viability EC50 (U2OS [11]) | relative viability EC50 (Caco-2 [12]) | relative viability EC50 (Vero E6 [13]) | relative viability EC50 (HepG2 [14]) | relative viability EC50 (Calu-3 [15]) |
| --- | --- | --- | --- | --- | --- | --- | --- | --- | --- | --- | --- | --- | --- | --- | --- | --- | --- | --- | --- | --- | --- | --- | --- | --- | --- | --- | --- | --- | --- | --- | --- | --- | --- | --- | --- |
| Cc1cc(C)cc(C(=O)N(C)[C@H](Cc2ccc(-c3ccccc3)cc2)C(=O)N[C@@H](Cc2c[nH]c3ccccc23)C(=O)O)c1 [IRL-2500] | 96.4% | 95.5% | 101% | 98.5% | 102% | 94% | 96.8% | 96.7% | 97.4% | 101% | 94.3% | 96.1% | 90.1% | 95.5% | 111% | 92.5% | 106% | 99.4% | 116% | 118% | 103% | 90.3% | 107% | 92.8% | 96.9% | 0 | 0 | 0 | 0 | 0 | > 10 µM | > 10 µM | > 10 µM | > 10 µM | > 10 µM |
| O=[N+]([O-])O[C@H]1CO[C@H]2[C@@H]1OC[C@H]2O[N+](=O)[O-] [isosorbide-dinitrate] | 100% | 96.1% | 100% | 99.8% | 99% | 99.1% | 95% | 102% | 90.5% | 98.7% | 94.2% | 102% | 92.5% | 97.1% | 108% | 90.6% | 117% | 102% | 113% | 101% | 99.4% | 101% | 101% | 101% | 107% | 0 | 0 | 0 | 0 | 0 | > 10 µM | > 10 µM | > 10 µM | > 10 µM | > 10 µM |
| O=C(O)CCc1ccc(NCc2cccc(Oc3ccccc3)c2)cc1 [GW-9508] | 91.9% | 97% | 98.6% | 102% | 97.6% | 95.4% | 98.4% | 102% | 112% | 106% | 94.1% | 96.1% | 97.8% | 95.2% | 101% | 97.1% | 101% | 96.9% | 99.8% | 96% | 90.9% | 100% | 107% | 106% | 104% | 0 | 0 | 0 | 0 | 0 | > 10 µM | > 10 µM | > 10 µM | > 10 µM | > 10 µM |
| CC(C)C(=O)OC[C@H]1O[C@@H](n2ccc(N)nc2=O)[C@](C)(F)[C@@H]1OC(=O)C(C)C [mericitabine] | 97.1% | 94% | 98.6% | 97% | 97.4% | 93.9% | 86.9% | 96.3% | 91.1% | 102% | 92.5% | 97.6% | 99.3% | 93.6% | 91.5% | 89.3% | 99.3% | 94.1% | 102% | 91.6% | 110% | 88.1% | 108% | 109% | 106% | 0 | 0 | 0 | 0 | 0 | > 10 µM | > 10 µM | > 10 µM | > 10 µM | > 10 µM |
| CN1CCN(c2ncc(-c3cc(Cl)cc(Cl)c3Cl)c(N)n2)CC1 [sipatrigine] | 104% | 102% | 104% | 103% | 92.9% | 85.5% | 91.1% | 92.3% | 91.8% | 85.3% | 110% | 107% | 100% | 101% | 94.5% | 100% | 103% | 110% | 98.4% | 86.4% | 92.1% | 105% | 108% | 111% | 92.3% | 0 | 0 | 0 | 0.2 | 0 | > 10 µM | > 10 µM | > 10 µM | > 10 µM | > 10 µM |
| CC[C@H]1OC(=O)[C@H](C)C(=O)[C@H](C)[C@@H](O[C@@H]2O[C@H](C)C[C@H](N(C)C)[C@H]2O)[C@](C)(OC)C[C@@H](C)C(=O)[C@H](C)[C@H]2N(CCCCn3cnc(-c4cccnc4)c3)C(=O)O[C@]12C [telithromycin] | 88% | 95.4% | 95% | 95.2% | 97% | 100% | 99.5% | 100% | 104% | 89% | 98.1% | 98.9% | 96.1% | 96.1% | 106% | 105% | 96.6% | 103% | 101% | 109% | 107% | 101% | 89% | 99.8% | 100% | 0 | 0 | 0 | 0 | 0 | > 10 µM | > 10 µM | > 10 µM | > 10 µM | > 10 µM |
| CC(C)(N)Cc1ccccc1 [phentermine] | 97.4% | 96% | 100% | 95.5% | 103% | 108% | 108% | 99.8% | 96.3% | 95.8% | 102% | 92.1% | 102% | 100% | 96.3% | 98.5% | 98.2% | 109% | 92.3% | 94.8% | 93.3% | 81% | 97.4% | 104% | 98.4% | 0 | 0 | 0 | 0 | 0 | > 10 µM | > 10 µM | > 10 µM | > 10 µM | > 10 µM |
